Reference: US11634396B2 (priority 2021, dated 2023)
pEC50, pIC50: −log10 of the molar value. Like-named read-outs stand apart in the source and are kept apart here.

How the values were obtained:
human dOR = human dOR (Homo sapiens (Human), UniProt P41143); experiment: cell-based
human mOR = human mOR (Homo sapiens (Human), UniProt P35372); experiment: cell-based
[1] = dOR cAMP Agonist Assay EC50, CHO Tag-lite human dOR stable cell line, forskolin
[2] = CHO Tag-lite human mOR stable cell line, forskolin 4 μM and DAMGO at EC90, read-out: mOR cAMP Antagonist Assay IC50
[3] = read-out: mOR cAMP Antagonist Assay IC50

Sequence of human dOR (P41143 whole entry): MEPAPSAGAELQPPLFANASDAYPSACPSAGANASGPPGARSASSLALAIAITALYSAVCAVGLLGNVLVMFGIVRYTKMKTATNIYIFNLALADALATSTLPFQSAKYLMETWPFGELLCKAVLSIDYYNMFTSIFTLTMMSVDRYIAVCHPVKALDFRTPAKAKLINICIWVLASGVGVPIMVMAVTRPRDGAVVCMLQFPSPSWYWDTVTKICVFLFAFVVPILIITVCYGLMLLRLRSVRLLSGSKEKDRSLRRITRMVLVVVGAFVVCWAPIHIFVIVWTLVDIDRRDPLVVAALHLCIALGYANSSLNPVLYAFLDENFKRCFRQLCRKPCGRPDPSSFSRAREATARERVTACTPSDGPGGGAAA
Sequence of human mOR (P35372 whole entry): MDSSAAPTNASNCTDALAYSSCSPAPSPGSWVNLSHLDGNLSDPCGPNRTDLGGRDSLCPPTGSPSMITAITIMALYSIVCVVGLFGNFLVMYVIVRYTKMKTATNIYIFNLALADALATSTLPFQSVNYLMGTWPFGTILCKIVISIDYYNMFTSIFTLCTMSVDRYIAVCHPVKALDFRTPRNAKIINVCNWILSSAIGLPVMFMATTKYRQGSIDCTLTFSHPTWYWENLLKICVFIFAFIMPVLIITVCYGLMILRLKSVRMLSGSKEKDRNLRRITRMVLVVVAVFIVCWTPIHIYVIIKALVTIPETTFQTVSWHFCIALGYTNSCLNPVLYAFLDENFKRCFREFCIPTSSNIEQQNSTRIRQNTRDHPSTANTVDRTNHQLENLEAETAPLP

| Compound | pEC50 (human dOR; [1]) | pIC50 (human mOR) | also measured |
| --- | --- | --- | --- |
| CC(C)[C@@H](CC(=O)NC[C@H](Cc1ccc(C(N)=O)cc1)N(C)C)c1ccccc1 [Compound 92, 4-((S)-2-(dimethylamino)-3-((R)-4-methyl-3-phenylpentanamido)propyl)benzamide] | > 6.52 | > 6.52 |  |
| CN(C)[C@H](CNC(=O)CC(C)(C)c1ccccc1)Cc1ccc2[nH]ncc2c1 [Compound 221, (S)-N-(2-(dimethylamino)-3-(1H-indazol-5-yl)propyl)-3-methyl-3-phenylbutanamide] | < 5.52 | > 6.52 |  |
| CCCC[C@@H](CC(=O)NC[C@H](Cc1ccc2[nH]c(=O)oc2c1)N(C)C)c1ccccc1 [Compound 174] | > 6.52 | > 6.52 |  |
| CNC(=O)c1ccc2c(c1)CN(C)[C@H](CNC(=O)C[C@H](c1ccccc1)C(C)(C)C)C2 [Compound 168, (S)-3-(((S)-4,4-dimethyl-3-phenylpentanamido)methyl)-N,2-dimethyl-1,2,3,4-tetrahydroisoquinoline-7-carboxamide] | < 5.52 | 5.52 to 6.52 |  |
| CC(C)C[C@@H](CC(=O)NC[C@H](Cc1ccc2[nH]c(=O)oc2c1)N(C)C)c1ccccc1 [Compound 172, (3S)-N-[(2S)-2-(dimethylamino)-3-(2-oxo-2,3-dihydro-1,3-benzoxazol-6-yl)propyl]-5-methyl-3-phenylhexanamide] | > 6.52 | > 6.52 |  |
| CNC(=O)c1ccc(C[C@@H](CNC(=O)C[C@@H](C)c2ccc(Cl)cc2)N(C)C)cc1F [Compound 155, 4-((S)-3-((R)-3-(4-chlorophenyl)butanamido)-2-(dimethylamino)propyl)-2-fluoro-N-methylbenzamide] | > 6.52 |  | pIC50 (human mOR; [2]): > 6.52 |
| Cc1ccc([C@@H](C)CC(=O)NC[C@H](Cc2ccc3[nH]ncc3c2)N(C)C)cc1 [Compound 217, (S)-N-((S)-2-(dimethylamino)-3-(1H-indazol-5-yl)propyl)-3-(p-tolyl)butanamide] | 5.52 to 6.52 |  | pIC50 (human mOR; [2]): > 6.52 |
| CNC(=O)c1ccc(C[C@@H](CNC(=O)C[C@@H](c2ccccc2)C(C)(C)C)N(C)C)cc1F [Compound 159, 4-((S)-3-((R)-4,4-dimethyl-3-phenylpentanamido)-2-(dimethylamino)propyl)-2-fluoro-N-methylbenzamide] | 5.52 to 6.52 | > 6.52 |  |
| CNC(=O)c1ccc(C[C@@H](CNC(=O)C[C@H](c2ccccc2)C(C)(C)C)N2CCCC2)cc1F [Compound 157, 4-((S)-3-((S)-4,4-dimethyl-3-phenylpentanamido)-2-(pyrrolidin-1-yl)propyl)-2-fluoro-N-methylbenzamide] | < 5.52 | > 6.52 |  |
| CC(C)[C@@H](CC(=O)NC[C@H](Cc1ccc2c(c1)CC(=O)N2)N(C)C)c1ccccc1 [Compound 182, (R)-N-((S)-2-(dimethylamino)-3-(2-oxoindolin-5-yl)propyl)-4-methyl-3-phenylpentanamide] | < 5.52 |  | pIC50 (human mOR; [2]): < 5.52 |
| CNC(=O)c1ccc(C[C@@H](CNC(=O)C[C@H](C)c2ccc(Cl)cc2)N(C)C)cc1F [Compound 156, 4-((S)-3-((S)-3-(4-chlorophenyl)butanamido)-2-(dimethylamino)propyl)-2-fluoro-N-methylbenzamide] | 5.52 to 6.52 |  | pIC50 (human mOR; [2]): > 6.52 |
| CC(C)[C@@H](CC(=O)NC[C@H](Cc1ccc2[nH]ncc2c1)N(C)C)c1ccccc1 [Compound 219, (R)-N-((S)-2-(dimethylamino)-3-(1H-indazol-5-yl)propyl)-4-methyl-3-phenylpentanamide] | 5.52 to 6.52 |  | pIC50 (human mOR; [2]): > 6.52 |
| CN(C)[C@H](CNC(=O)C[C@@H](c1ccccc1)C(C)(C)C)Cc1ccc(C(N)=O)cc1 [Compound 95, 4-((S)-3-((R)-4,4-dimethyl-3-phenylpentanamido)-2-(dimethylamino)propyl)benzamide] | < 5.52 |  |  |
| CC(=O)Oc1ccc(C[C@@H](CNC(=O)C[C@H](C)c2ccccc2)N(C)C)cc1Cl [Compound 275, 2-chloro-4-((S)-2-(dimethylamino)-3-((S)-3-phenylbutanamido)propyl)phenyl acetate] | > 6.52 | > 6.52 |  |
| CC(C)C[C@H](CC(=O)NC[C@H](Cc1ccc(-c2cn[nH]c2)cc1Cl)N(C)C)c1ccccc1 [Compound 326, (3R)-N-[(2S)-3-[2-chloro-4-(1H-pyrazol-4-yl)phenyl]-2-(dimethylamino)propyl]-5-methyl-3-phenylhexanamide] |  |  | pEC50 (human dOR; read-out: dOR cAMP Agonist Assay EC50): < 5.52; pIC50 (human mOR; [3]): 5.52 to 6.52 |
| CC(C)[C@@H](CC(=O)NC[C@H](Cc1ccc(C(N)=O)cc1Cl)N(C)C)c1ccccc1 [Compound 40, 3-chloro-4-((S)-2-(dimethylamino)-3-((R)-4-methyl-3-phenylpentanamido)propyl)benzamide] | > 6.52 | < 5.52 |  |

| Compound | pEC50 (human dOR; [1]) | pIC50 (human mOR) | also measured |
| --- | --- | --- | --- |
| CNC(=O)c1ccc(C[C@@H](CNC(=O)CC(c2ccc(OC)nc2)C2(C(F)(F)F)CC2)N(C)C)c(Cl)c1 (stereo partly drawn) [Compound 115, 3-chloro-4-((2S)-2-(dimethylamino)-3-(3-(6-methoxypyridin-3-yl)-3-(1-(trifluoromethyl)cyclopropyl)propanamido)propyl)-N-methylbenzamide] |  |  | pIC50 (human mOR; [3]): 5.52 to 6.52 |
| CNC(=O)c1ccc(C[C@@H](CNC(=O)C[C@@H](c2ccccc2)C2(C(F)(F)F)CC2)N(C)C)cc1F [Compound 154, 4-((S)-2-(dimethylamino)-3-((S)-3-phenyl-3-(1-(trifluoromethyl)cyclopropyl)propanamido)propyl)-2-fluoro-N-methylbenzamide] |  | > 6.52 |  |
| Cc1cc(O)cc(C)c1C[C@@H](CNC(=O)CC(c1ccc(C(F)(F)F)nc1)C1(C(F)(F)F)CC1)N(C)C (stereo partly drawn) [Compound 249, N-((S)-2-(dimethylamino)-3-(4-hydroxy-2,6-dimethylphenyl)propyl)-3-(1-(trifluoromethyl)cyclopropyl)-3-(6-(trifluoromethyl)pyridin-3-yl)propanamide] |  | > 6.52 |  |
| CN(C)[C@H](CNC(=O)C[C@@H](CC1CC1)c1cncnc1)Cc1ccc(O)c(Cl)c1 [Compound 282, (R)-N-((S)-3-(3-chloro-4-hydroxyphenyl)-2-(dimethylamino)propyl)-4-cyclopropyl-3-(pyrimidin-5-yl)butanamide] |  | > 6.52 |  |
| CN(C)[C@H](CNC(=O)C[C@@H](c1ccccc1)C1(C(F)(F)F)CC1)Cc1ccc2[nH]ncc2c1 [Compound 190, (S)-N-((S)-2-(dimethylamino)-3-(1H-indazol-5-yl)propyl)-3-phenyl-3-(1-(trifluoromethyl)cyclopropyl)propanamide] |  |  | pIC50 (human mOR; [2]): 5.52 to 6.52 |
| CN(C)[C@H](CNC(=O)C[C@H](c1cccnc1)C1(C)CC1)Cc1ccc2[nH]ncc2c1 [Compound 204, (S)-N-((S)-2-(dimethylamino)-3-(1H-indazol-5-yl)propyl)-3-(1-methylcyclopropyl)-3-(pyridin-3-yl)propanamide] |  | > 6.52 |  |
| Cc1cc(C[C@@H](CNC(=O)C[C@H](c2cccnc2)C2(C(F)(F)F)CC2)N(C)C)cc2cn[nH]c12 [Compound 231, (R)-N-((S)-2-(dimethylamino)-3-(7-methyl-1H-indazol-5-yl)propyl)-3-(pyridin-3-yl)-3-(1-(trifluoromethyl)cyclopropyl)propanamide; bis(trifluoroacetic acid)] |  | > 6.52 |  |
| Cc1ncc(C(CC(=O)NC[C@H](Cc2c(C)cc(O)cc2C)N(C)C)C2CC2)s1 (stereo partly drawn) [Compound 254, (S)-3-cyclopropyl-N-((S)-2-(dimethylamino)-3-(4-hydroxy-2,6-dimethylphenyl)propyl)-3-(2-methylthiazol-5-yl)propanamide] |  | > 6.52 |  |
| Cc1ncc([C@H](CC(=O)NC[C@H](Cc2ccc(C(N)=O)c(F)c2)N(C)C)C2(C(F)(F)F)CC2)s1 [Compound 58, 4-((S)-2-(dimethylamino)-3-((R)-3-(2-methylthiazol-5-yl)-3-(1-(trifluoromethyl)cyclopropyl)propanamido)propyl)-2-fluorobenzamide] |  | < 5.52 |  |
| Cc1cc(O)cc(C)c1C[C@@H](CNC(=O)C1CC1c1ncccn1)N(C)C (stereo partly drawn) [Compound 248, N-((S)-2-(dimethylamino)-3-(4-hydroxy-2,6-dimethylphenyl)propyl)-2-(pyrimidin-2-yl)cyclopropane-1-carboxamide] |  |  | pIC50 (human mOR; [2]): 5.52 to 6.52 |
| Cc1ncc([C@@H](CC(=O)NC[C@H](Cc2ccc(O)c(Cl)c2)N(C)C)C2(C(F)(F)F)CC2)cn1 [Compound 283, (R)-N-((S)-3-(3-chloro-4-hydroxyphenyl)-2-(dimethylamino)propyl)-3-(2-methylpyrimidin-5-yl)-3-(1-(trifluoromethyl)cyclopropyl)propanamide] |  | > 6.52 |  |
| CN(C)[C@H](CNC(=O)C[C@@H](c1ccncc1)C1(C(F)(F)F)CC1)Cc1ccc2[nH]ncc2c1 [Compound 208, (S)-N-((S)-2-(dimethylamino)-3-(1H-indazol-5-yl)propyl)-3-(pyridin-4-yl)-3-(1-(trifluoromethyl)cyclopropyl)propanamide] |  | > 6.52 |  |
| Cc1cncc([C@H](CC(=O)NC[C@H](Cc2ccc3[nH]ncc3c2)N(C)C)C2(C(F)(F)F)CC2)c1 [Compound 203, (S)-N-((S)-2-(dimethylamino)-3-(1H-indazol-5-yl)propyl)-3-(5-methylpyridin-3-yl)-3-(1-(trifluoromethyl)cyclopropyl)propanamide] |  | 5.52 to 6.52 |  |
| CNC(=O)c1ccc(C[C@@H](CNC(=O)C[C@@H](c2ccncc2)C2(C(F)(F)F)CC2)N(C)C)c(Cl)c1F [Compound 110, 3-chloro-4-((S)-2-(dimethylamino)-3-((S)-3-(pyridin-4-yl)-3-(1-(trifluoromethyl)cyclopropyl)propanamido)propyl)-2-fluoro-N-methylbenzamide] |  |  | pIC50 (human mOR; [2]): < 5.52 |
| CN(C)[C@H](CNC(=O)C[C@H](c1cccnc1)C1(C(F)(F)F)CC1)Cc1cc(F)c(O)cc1F [Compound 238, (R)-N-((S)-3-(2,5-difluoro-4-hydroxyphenyl)-2-(dimethylamino)propyl)-3-(pyridin-3-yl)-3-(1-(trifluoromethyl)cyclopropyl)propanamide] |  | > 6.52 |  |
